Data reported in US11498921B1, “Pyrimidine or pyridine compounds, preparation method therefor and pharmaceutical uses thereof” (INVENTISBIO CO., LTD., priority 2014, dated 2022).
Structures can show the parent of a compound that is named as a salt.

Tests used:
Type in all cases: cell-based
[1] = system: NCI-H1975 cells (T790M and L858R EGFR mutations); test: Cell growth inhibition (Cell Titer-Glo), NCI-H1975; conditions: Homo sapiens, 72 hours drug treatment, 0.03 nM to 100 nM
Procedure: (§1) Experiment of Cell Growth Inhibition
(§2) The LoVo cell line is a wild-type EGFR human colon adenocarcinoma cell, and is grown in F-12K medium (GIBCO) containing 10% FBS. NCI-H2073 cell line is a wild-type EGFR human non-small cell lung cancer cell and grown in ACL-4 medium containing 10% FBS. The growth rate of NCI-H1975, LoVo and NCI-H2073 cells was detected by Cell Titer-Glo luminescence activity assay (Promega #G7572).
(§3) Briefly, trypsin was used for digesting cells in the logarithmic growth phase. 96-well plates were seeded with 50,000 Lovo or NCI-H2073 cells, 2500-3000 NCI-H1975 cells per well and provided with blank control wells containing only nutrient solution without inoculated cell, and the plates were incubated in a humidified incubator with 5% CO2 at 37° C. […] The concentration of test drug in NCI-H1975 cells was from 0.03 nM to 100 nM, and that in LoVo and NCI-H2073 cells was from 3 nM to 10 μM. The cell culture medium containing the different compounds was then added to a 96-well cell plate in which one cell control well comprising cell culture medium only containing DMSO was provided. After a drug treatment for 72 hours, the cell plates were removed from the incubator and allowed to stand at room temperature for 30 minutes. Next, Cell Titer-Glo reagent was added to the wells and the 96-well cell plate was shaken at room temperature for 10 minutes to induce cell lysis. The 96-well cell plate was placed on the bench for 2 minutes to stabilize the luminescence signal. Finally, the 96-well cell plate was placed in an EnVision Multi-labeled Microplate Reader (PerkinElmer), and the signal was read with an integral time of 0.5 seconds.
(§4) Formula: Percentage of cell growth inhibition %=(maximum signal−compound signal)/(maximum signal−minimum signal)*100%
(§5) The maximal signal was obtained from the cell control well which were treated with the DMSO solution having no any compound;
(§6) The compound signal was obtained from the drug-treated cell wells to which the compound was added;
(§7) The minimum signal was obtained from a blank control well to which no cells and only nutrient solution was added.

[2] = system: LoVo cells (wild-type EGFR human colon adenocarcinoma); test: Cell growth inhibition (Cell Titer-Glo), LoVo; conditions: 72 hours drug treatment, 3 nM to 10 μM
Procedure: as §1, §2, §3, §4, §5, §6, §7

[3] = system: NCI-H2073 cells (wild-type EGFR human non-small cell lung cancer); test: Cell growth inhibition (Cell Titer-Glo), NCI-H2073; conditions: 72 hours drug treatment, 3 nM to 10 μM
Procedure: as §1
as §2, with “The compounds that were preferentially targeted for EGFR targeting certain mutations and relatively weak in wild-type EGFR were identified by determining the growth of cells. The NCI-H1975 cell line is a human non-small cell lung cancer cell containing T790M and L858R EGFR mutations, and the cell is grown in RPMI-1640 medium (GIBCO) containing 10% fetal bovine serum (FBS). The LoVo” for “The LoVo”
Briefly, trypsin was used for digesting cells in the logarithmic growth phase. 96-well plates were seeded with 50,000 Lovo or NCI-H2073 cells, 2500-3000 NCI-H1975 cells per well and provided with blank control wells containing only nutrient solution without inoculated cell, and the plates were incubated in a humidified incubator with 5% CO2 at 37° C. After 24 hours, the DMSO solution of the different compounds was diluted with a cell culture medium at 3.16 times per time to eight different concentrations from high to low levels. The concentration of test drug in NCI-H1975 cells was from 0.03 nM to 100 nM, and that in LoVo and NCI-H2073 cells was from 3 nM to 10 μM. The cell culture medium containing the different compounds was then added to a 96-well cell plate in which one cell control well comprising cell culture medium only containing DMSO was provided. After a drug treatment for 72 hours, the cell plates were removed from the incubator and allowed to stand at room temperature for 30 minutes. Next, Cell Titer-Glo reagent was added to the wells and the 96-well cell plate was shaken at room temperature for 10 minutes to induce cell lysis. The 96-well cell plate was placed on the bench for 2 minutes to stabilize the luminescence signal. Finally, the 96-well cell plate was placed in an EnVision Multi-labeled Microplate Reader (PerkinElmer), and the signal was read with an integral time of 0.5 seconds.
as §4, §5, §6, §7

SMILES	IC50 [1] [nM]	IC50 [2] [nM]	IC50 [3] [nM]
C=CC(=O)Nc1cc(Nc2nccc(-c3nn(C)c4ccccc34)n2)c(OC)cc1N(C)CCN(C)C [1. (HCl)n]	5.4	2260	230
C=CC(=O)Nc1cc(Nc2nccc(-n3nnc4ccccc43)n2)c(OC)cc1N(C)CCN(C)C [2. (MsOH)3]	6.1	2300	474
C=CC(=O)Nc1cc(Nc2nccc(-n3ccc4ccccc43)n2)c(OC)cc1N(C)CCN(C)C [3. (MsOH)2]	6.2	3090	295
C=CC(=O)Nc1cc(Nc2nccc(-n3cc(C)c4ccccc43)n2)c(OC)cc1N(C)CCN(C)C [4. (MsOH)3]	8.6	2570	500
C=CC(=O)Nc1cc(Nc2nccc(N3CCc4ccccc43)n2)c(OC)cc1N(C)CCN(C)C [5. (MsOH)3]	5.4	4230	335
C=CC(=O)Nc1cc(Nc2nccc(-c3cn(C)c4ccccc34)n2)c(OC)cc1N(C)CCN(C)CC [7. (MsOH)3]	9.9	2170	760
C=CC(=O)Nc1cc(Nc2nccc(-c3cn(C)c4ccccc34)n2)c(OC)cc1N(C)CCN(CC)CC [8. MsOH]	113	1940	870
C=CC(=O)Nc1cc(Nc2nccc(-c3cn(C)c4ccccc34)n2)c(OC)cc1N(CC)CCN(C)C [9. (MsOH)2]	13	2060	1130
C=CC(=O)Nc1cc(Nc2nccc(-c3cn(C)c4ccccc34)n2)c(OC)cc1OCCN(C)C [29. (MsOH)2]	13	2520	2520
C=CC(=O)Nc1cc(Nc2nccc(N3CCOc4ccccc43)n2)c(OC)cc1N(C)CCN(C)C [36. (MsOH)3]	15	4330	410
C=CC(=O)Nc1cc(Nc2nccc(N3CC(C)(C)c4ccccc43)n2)c(OC)cc1N(C)CCN(C)C [37. (MsOH)3]	8.1	4660	260
C=CC(=O)Nc1cc(Nc2nccc(N3CC4(CC4)c4ccccc43)n2)c(OC)cc1N(C)CCN(C)C [38. (HCl)n]	8.2	2990	476
C=CC(=O)Nc1cc(Nc2nccc(-n3c(=O)[nH]c4ccccc43)n2)c(OC)cc1N(C)CCN(C)C [39. (MsOH)3]	0.8	3390	18
C=CC(=O)Nc1cc(Nc2nccc(-n3c(=O)n(C)c4ccccc43)n2)c(OC)cc1N(C)CCN(C)C [40. (MsOH)3]	1.3	6090	183
C=CC(=O)Nc1cc(Nc2nccc(-c3cccc4c3ccn4C)n2)c(OC)cc1N(C)CCN(C)C [41. (HCl)n]	7.4	> 10000	340
C=CC(=O)Nc1cc(Nc2nccc(-c3cccc4c3cnn4C)n2)c(OC)cc1N(C)CCN(C)C [42. (HCl)n]	7.1	7100	490
C=CC(=O)Nc1cc(Nc2cc(-c3cn(C)c4ccccc34)ncn2)c(OC)cc1N(C)CCN(C)C [44. (HCl)n]	14	870	280
C=CC(=O)Nc1cc(Nc2nccc(-c3cn(CC)c4ccccc34)n2)c(OC)cc1N(C)CCN(C)C [48. (HCl)n]	5.5	2340	435
C=CC(=O)Nc1cc(Nc2nccc(-n3[nH]c(=O)c4ccccc43)n2)c(OC)cc1N(C)CCN(C)C [50. (HCl)n]	9.2	> 10000	290
C=CC(=O)Nc1cc(Nc2nccc(-c3nn(CC)c4ccccc34)n2)c(OC)cc1N(C)CCN(C)C [51. (HCl)n]	2.6	1280	325

SMILES	IC50 [1] [nM]	IC50 [2] [nM]	IC50 [3] [nM]
C=CC(=O)Nc1cc(Nc2nccc(-c3nc(C)c4ccccn34)n2)c(OC)cc1N(C)CCN(C)C [52. (HCl)n]	5.2	6100	220
[2H]C([2H])([2H])N(CCN(C)C)c1cc(OC)c(Nc2nccc(-c3cn(S(C)(=O)=O)c4ccccc34)n2)cc1NC(=O)C=C [71. (MsOH)2]	0.4		64
[2H]C([2H])([2H])N(CCN(C)c1cc(OC)c(Nc2nccc(-c3cn(CC)c4ccccc34)n2)cc1NC(=O)C=C)C([2H])([2H])[2H] [72. (MsOH)3]	2.7		282
[2H]C([2H])([2H])N(CCN(C)C)c1cc(OC)c(Nc2nccc(-c3cn(CC)c4ccccc34)n2)cc1NC(=O)C=C [73. (MsOH)2]	1.7		179
[2H]C([2H])([2H])N(CCN(C)C)c1cc(OC)c(Nc2nccc(-n3nnc4ccccc43)n2)cc1NC(=O)C=C [74. (MsOH)3]	14.4		463
[2H]C([2H])([2H])N(CCN(C)C)c1cc(OC)c(Nc2nccc(-n3c(=O)n(C([2H])([2H])[2H])c4ccccc43)n2)cc1NC(=O)C=C [76. (MsOH)2]	1		56
C=CC(=O)Nc1cc(Nc2nccc(-c3cn(S(=O)(=O)CC)c4ccccc34)n2)c(OC)cc1N(C)CCN(C)C [101. (MsOH)2]	5.5		193
C=CC(=O)Nc1cc(Nc2nccc(-c3cn(S(=O)(=O)C(C)C)c4ccccc34)n2)c(OC)cc1N(C)CCN(C)C [102. (MsOH)2]	6.4		170
C=CC(=O)Nc1cc(Nc2nccc(-c3cn(S(=O)(=O)C4CC4)c4ccccc34)n2)c(OC)cc1N(C)CCN(C)C [103. (MsOH)2]	13.1		300
C=CC(=O)Nc1cc(Nc2nccc(-c3cn(CC(F)F)c4ccccc34)n2)c(OC)cc1N(C)CCN(C)C [105. (MsOH)2]	15.7		543
C=CC(=O)Nc1cc(Nc2nccc(-n3c(=O)n(C(C)C)c4ccccc43)n2)c(OC)cc1N(C)CCN(C)C [106. (MsOH)2]	4.7		155
C=CC(=O)Nc1cc(Nc2nccc(-n3c(=O)n(C4CC4)c4ccccc43)n2)c(OC)cc1N(C)CCN(C)C [107. (MsOH)2]	7.4		185
C=CC(=O)Nc1cc(Nc2nccc(-n3c(=O)n(CC(F)(F)F)c4ccccc43)n2)c(OC)cc1N(C)CCN(C)C [108. (MsOH)2]	5.9		253
C=CC(=O)Nc1cc(Nc2nccc(-n3c(=O)n(CC(F)F)c4ccccc43)n2)c(OC)cc1N(C)CCN(C)C [109. (MsOH)2]	4.5		268
C=CC(=O)Nc1cc(Nc2nccc(N3c4ccccc4N(C)S3(=O)=O)n2)c(OC)cc1N(C)CCN(C)C [110. (MsOH)2]	2.9		103
C=CC(=O)Nc1cc(Nc2nccc(N3c4ccccc4N(CC)S3(=O)=O)n2)c(OC)cc1N(C)CCN(C)C [111. (MsOH)2]	2.7		49
C=CC(=O)Nc1cc(Nc2nccc(-n3cc(S(C)(=O)=O)c4ccccc43)n2)c(OC)cc1N(C)CCN(C)C [112. (MsOH)2]	100		5420
C=CC(=O)Nc1cc(Nc2nccc(-c3nn(C(C)C)c4ccccc34)n2)c(OC)cc1N(C)CCN(C)C [113. (MsOH)2]	26.5		595
C=CC(=O)Nc1cc(Nc2nccc(-c3cncc4ccccc34)n2)c(OC)cc1N(C)CCN(C)C [Example 67]	81.7		4100
